Here are results for 14 molecules from patent US11622970B2, “BCL-2 inhibitors and their use as pharmaceuticals” (PRELUDE THERAPEUTICS INCORPORATED, priority 2020, dated 2023).

Each structure is given as a SMILES string.

BCL-2 recombinant protein, sequence (P10415 whole entry): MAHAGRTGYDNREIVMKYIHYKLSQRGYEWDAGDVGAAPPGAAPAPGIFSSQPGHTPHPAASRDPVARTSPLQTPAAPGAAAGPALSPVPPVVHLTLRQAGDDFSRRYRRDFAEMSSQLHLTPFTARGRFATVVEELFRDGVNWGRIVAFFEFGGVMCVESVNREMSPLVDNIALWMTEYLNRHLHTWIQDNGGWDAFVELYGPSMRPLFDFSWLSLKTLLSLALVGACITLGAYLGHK

The target of one experiment is BCL-2 recombinant protein (Homo sapiens, UniProt P10415). The experiment in a line: Cell free Bcl-2:Bak affinity assay (Bcl-2 Bak), HTRF competition of FAM-Bak peptide. The format is binding. The note with it: 1 μM compound, 4 nM BCL-2 recombinant protein, 100 nM FAM-Bak, read-out: potency (% inhibition at 1 μM). The gist of the method:
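Compounds in 10-point 3-fold dilution preincubated 10 min at RT with 4 nM GST-BCL-2 (20 mM K phosphate pH 7.5, 50 mM NaCl, 1 mM EDTA, 0.005% Triton X-100), then 100 nM FAM-Bak 10 min, anti-GST-Tb added, 60 min RT dark. HTRF read; % inhibition vs DMSO and positive control, IC50 from curve fit.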
In general, inhibition refers to the change of the read-out against control, counted positive when it falls. Turning to `CC1(C)CCC(CN2CCN(c3ccc(S(=O)(=O)NC(=O)c4cc([N+](=O)[O-])c(NCC5CCOCC5)cc4Cl)cc3)CC2)=C(c2ccc(Cl)cc2)C1` [Example 41, 2-Chloro-N-[4-[4-[[2-(4-chlorophenyl)-4,4-dimethylcyclohexen-1-yl]methyl]piperazin-1-yl]phenyl]sulfonyl-5-nitro-4-(tetrahydropyran-4-ylmethylamino)benzamide], the inhibition at 1 µM is 50 to 90%. Same read-out and setting: in the case of `CC1(C)CCC(CN2CCN(c3ccc(S(=O)(=O)NC(=O)c4cnccn4)cc3)CC2)=C(c2ccc(Cl)cc2)C1` [Example 6, N-([4-[4-[[2-(4-chlorophenyl)-4,4-dimethylcyclohexen-1-yl]methyl]piperazin-1-yl]phenyl]sulfonyl)pyrazine-2-carboxamide] it was 50 to 90%. On the same count and under the same terms, in the case of `Cc1c(Cl)c(C(=O)NS(=O)(=O)c2ccc(N3CCN(CC4=C(c5ccc(Cl)cc5)CC(C)(C)CC4)CC3)cc2)cc([N+](=O)[O-])c1NCC1CCOCC1` [Example 42, 2-Chloro-N-([4-[4-[[2-(4-chlorophenyl)-4,4-dimethylcyclohexen-1-yl]methyl]piperazin-1-yl]phenyl]sulfonyl)-3-methyl-5-nitro-4-(tetrahydropyran-4-ylmethylamino)benzamide] it was greater than 90%; in that of `CC1(C)CCC(CN2CCN(c3ccc(S(=O)(=O)NC(=O)c4cccc(C(F)(F)F)n4)cc3)CC2)=C(c2ccc(Cl)cc2)C1` [Example 21, N-([4-[4-[[2-(4-chlorophenyl)-4,4-dimethylcyclohexen-1-yl]methyl]piperazin-1-yl]phenyl]sulfonyl)-6-(trifluoromethyl)pyridine-2-carboxamide], 50 to 90%; in that of `CC1(C)CCC(CN2CCN(c3ccc(S(=O)(=O)NC(=O)Cc4ccccc4F)cc3)CC2)=C(c2ccc(Cl)cc2)C1` [Example 30, N-([4-[4-[[2-(4-chlorophenyl)-4,4-dimethylcyclohexen-1-yl]methyl]piperazin-1-yl]phenyl]sulfonyl)-2-(2-fluorophenyl)acetamide], 50 to 90%.

In the case of `CC1(C)CCC(CN2CCN(c3ccc(S(=O)(=O)NC(=O)c4ccc5sccc5c4)cc3)CC2)=C(c2ccc(Cl)cc2)C1` [Example 3, N-[4-[4-[[2-(4-chlorophenyl)-4,4-dimethylcyclohexen-1-yl]methyl]piperazin-1-yl]phenyl]sulfonylbenzo[b]thiophene-5-carboxamide], the inhibition at 1 µM fell in the range of 50 to 90%. On the same count and under the same terms, the same measure for `Cc1nn(C)c(C)c1-c1nc(C(=O)NS(=O)(=O)c2ccc(N3CCN(CC4=C(c5ccc(Cl)cc5)CC(C)(C)CC4)CC3)cc2)ccc1F` [Example 44, N-[4-[4-[[2-(4-chlorophenyl)-4,4-dimethylcyclohexen-1-yl]methyl]piperazin-1-yl]phenyl]sulfonyl-5-fluoro-6-(1,3,5-trimethylpyrazol-4-yl)pyridine-2-carboxamide]: 50 to 90%.

Still in this experiment, the particulars now being: 10-concentration IC50 mode, 4 nM BCL-2 recombinant protein, 100 nM FAM-Bak, read-out: potency (IC50).
For orientation: IC50 means the concentration needed to halve the response being measured. As for `COCc1ccc(C(=O)NS(=O)(=O)c2ccc(N3CCN(CC4=C(c5ccc(Cl)cc5)CC(C)(C)CC4)CC3)cc2Oc2cnc3[nH]ccc3c2)cc1[N+](=O)[O-]` [Example 87, N-[4-[4-[[2-(4-chlorophenyl)-4,4-dimethylcyclohexen-1-yl]methyl]piperazin-1-yl]-2-(1H-pyrrolo[2,3-b]pyridin-5-yloxy)phenyl]sulfonyl-4-(methoxymethyl)-3-nitrobenzamide], the 50% inhibitory concentration (IC50) lay in the range of 10 to 100 nM.

`Cc1cc(S(C)(=O)=O)cc(C(=O)NS(=O)(=O)c2ccc(N3CCN(CC4=C(c5ccc(Cl)cc5)CC(C)(C)CC4)CC3)cc2Oc2cnc3[nH]ccc3c2)n1` [Example 97, N-[4-[4-[[2-(4-Chlorophenyl)-4,4-dimethylcyclohexen-1-yl]methyl]piperazin-1-yl]-2-(1H-pyrrolo[2,3-b]pyridin-5-yloxy)phenyl]sulfonyl-6-methyl-4-methylsulfonylpyridine-2-carboxamide]: the half-maximal inhibitory concentration (IC50) is greater than 1000 nM. Consider `Cc1nc(C(=O)NS(=O)(=O)c2ccc(N3CCN(CC4=C(c5ccc(Cl)cc5)CC(C)(C)CC4)CC3)cc2Oc2cnc3[nH]ccc3c2)ccc1Cl` [Example 73, N-[4-[4-[[2-(4-chlorophenyl)-4,4-dimethylcyclohexen-1-yl]methyl]piperazin-1-yl]-2-(1H-pyrrolo[2,3-b]pyridin-5-yloxy)phenyl]sulfonyl-5-chloro-6-methylpyridine-2-carboxamide], for which the IC50 lay in the range of 10 to 100 nM. The same measure, in the same setting: in the case of `CC1(C)CCC(CN2CCN(c3ccc(S(=O)(=O)NC(=O)c4ccc(COc5ccc(Cl)cc5)c([N+](=O)[O-])c4)c(Oc4cnc5[nH]ccc5c4)c3)CC2)=C(c2ccc(Cl)cc2)C1` [Example 82] it was less than 10 nM; in that of `Cc1cc([N+](=O)[O-])cc(C(=O)NS(=O)(=O)c2ccc(N3CCN(CC4=C(c5ccc(Cl)cc5)CC(C)(C)CC4)CC3)cc2Oc2cnc3[nH]ccc3c2)n1` [Example 66, N-[4-[4-[[2-(4-Chlorophenyl)-4,4-dimethylcyclohexen-1-yl]methyl]piperazin-1-yl]-2-(1H-pyrrolo[2,3-b]pyridin-5-yloxy)phenyl]sulfonyl-6-methyl-4-nitropyridine-2-carboxamide], 10 to 100 nM; in that of `Cc1cc(C(=O)NS(=O)(=O)c2ccc(N3CCN(CC4=C(c5ccc(Cl)cc5)CC(C)(C)CC4)CC3)cc2Oc2cnc3[nH]ccc3c2)nn1C` [Example 77, N-[4-[4-[[2-(4-chlorophenyl)-4,4-dimethylcyclohexen-1-yl]methyl]piperazin-1-yl]-2-(1H-pyrrolo[2,3-b]pyridin-5-yloxy)phenyl]sulfonyl-1,5-dimethylpyrazole-3-carboxamide], 100 to 1000 nM. On the same count and under the same terms, the same measure for `CC1(C)CCC(CN2CCN(c3ccc(S(=O)(=O)NC(=O)c4ccc(Cl)c(C(F)(F)F)n4)c(Oc4cnc5[nH]ccc5c4)c3)CC2)=C(c2ccc(Cl)cc2)C1` [Example 71, 5-Chloro-N-[4-[4-[[2-(4-chlorophenyl)-4,4-dimethylcyclohexen-1-yl]methyl]piperazin-1-yl]-2-(1H-pyrrolo[2,3-b]pyridin-5-yloxy)phenyl]sulfonyl-6-(trifluoromethyl)pyridine-2-carboxamide]: 100 to 1000 nM.
